From US8188059B2, “Compounds and methods for modulating expression of GCGR” (Isis Pharmaceuticals, Inc., priority 2006, dated 2012)
Strand notation (5' to 3'): a small letter for the sugar, then the base; units joined by * are phosphorothioate-linked, units joined directly phosphodiester-linked; [ ] holds rarer units or linkages, { } end groups; capitals alone tell only the bases. e = 2'-O-(2-methoxyethyl) (MOE); [5mC] = 5-methylcytosine; d = 2'-deoxy (DNA)

Columns and labels:
rat DGAT2 mRNA [1] = assay: Dose-dependent inhibition of DGAT2 in A10 cells, 0.62-150 nM (Example 22, Table 83); assay type: cell-based
Procedure: Additional short antisense compounds targeted to DGAT2 mRNA were tested in vitro. A10 cells were prepared as described above and treated with 0.62, 1.85, 5.56, 16.67, 50.0, and 150.0 nM short antisense compounds to determine if DGAT2 inhibition occurs in a dose-dependent manner. DGAT2 mRNA was measured using quantitative real-time PCR, as described herein. […] Results are presented as percent inhibition of rat DGAT2, relative to untreated control cells.

DGAT2 mRNA = assay: Antisense inhibition of DGAT2 in A10 cells at 75 nM (Example 22, Table 81); assay type: cell-based, rat; details: approximately 24 hours
Procedure: Short antisense compounds targeted to a DGAT2 nucleic acid were tested for their effects on DGAT2 mRNA in vitro. Cultured A10 cells in a 96-well plate were treated with 75 nM of short antisense compound. After a treatment period of approximately 24 hours, RNA was isolated from the cells and DGAT2 mRNA levels were measured by quantitative real-time PCR, as described herein. DGAT2 mRNA levels were adjusted according to total RNA content as measured by RIBOGREEN®. […]

rat DGAT2 mRNA [2] = assay: Dose-dependent inhibition of DGAT2 in A10 cells, 6.25-200 nM (Example 22, Table 82); assay type: cell-based
Procedure: Additional short antisense compounds targeted to DGAT2 mRNA were tested in vitro in a dose-response experiment. A10 cells were prepared as described above and treated with 6.25, 12.5, 25.0, 50.0, 100.0, and 200.0 nM short antisense compounds to determine if DGAT2 inhibition occurs in a dose-dependent manner. […] Results are presented as percent inhibition, relative to untreated control cells.

rat SGLT2 mRNA = assay: Rat SGLT2 mRNA levels in kidney, 1-10-1 and 1-10-2 MOE gapmers, Sprague-Dawley rats (Example 13, Table 63); assay type: in vivo
Excerpt: 1-10-1 and 1-10-2 MOE gapmer antisense compounds, provided in Table 62, were designed to target different regions of the mouse or rat SGLT2 RNA. All short antisense compounds in Table 62 are chimeric oligonucleotides (“gapmers”) either 12 or 13 nucleotides in length, composed of a central “gap” segment consisting of ten 2′-deoxynucleotides, which are flanked on the 5′ side by a one-nucleoside “wing” and on the 3′ side by a two or one-nucleotide “wing”. […] All cytidine residues are 5-methylcytidines.
The short antisense compounds were analyzed for their effect on rat SGLT2 mRNA levels. Data are ranges taken from three experiments in which Male Sprague-Dawley rats (170-200 g) were dosed twice per week for three weeks with 450, 150 or 50 nmol/kg of either a 1-10-1 or 1-10-2 MOE gapmer given by intraperitoneal injection. Rats were sacrificed 48 hours following last administration and evaluated for SGLT2 mRNA levels in kidney. Target levels were determined by RT, real-time PCR as described by other examples herein. PCR results were normalized to an internal ISIS control.

[3] = 50 nmol/kg i.p. twice per week for three weeks
[4] = 150 nmol/kg i.p. twice per week for three weeks
[5] = 450 nmol/kg i.p. twice per week for three weeks

Substance	percent inhibition of rat DGAT2 (rat DGAT2 mRNA [1]; 0.62 nM)	percent inhibition of rat DGAT2 (rat DGAT2 mRNA [1]; 1.85 nM)	percent inhibition of rat DGAT2 (rat DGAT2 mRNA [1]; 5.56 nM)	percent inhibition of rat DGAT2 (rat DGAT2 mRNA [1]; 16.67 nM)	percent inhibition of rat DGAT2 (rat DGAT2 mRNA [1]; 50 nM)	percent inhibition of rat DGAT2 (rat DGAT2 mRNA [1]; 150 nM)	DGAT2 mRNA, % Control (DGAT2 mRNA)	percent inhibition of DGAT2 (rat DGAT2 mRNA [2]; 6.25 nM)	percent inhibition of DGAT2 (rat DGAT2 mRNA [2]; 12.5 nM)	percent inhibition of DGAT2 (rat DGAT2 mRNA [2]; 50.0 nM)	percent inhibition of DGAT2 (rat DGAT2 mRNA [2]; 100.0 nM)	percent inhibition of DGAT2 (rat DGAT2 mRNA [2]; 200.0 nM)	percent inhibition of DGAT2 (rat DGAT2 mRNA [2]; […])	% change in SGLT2 expression relative to saline (rat SGLT2 mRNA; [3])	% change in SGLT2 expression relative to saline (rat SGLT2 mRNA; [4])	% change in SGLT2 expression relative to saline (rat SGLT2 mRNA; [5])
372524 (antisense eG*e[5mC]*e[5mC]*dA*dG*dG*d[5mC]*dA*dT*dG*dG*dA*dG*e[5mC]*eT*e[5mC]) [compound 372524]	7	0	5	30	68	91	21%									
372530 (antisense eT*e[5mC]*eG*dG*d[5mC]*d[5mC]*d[5mC]*d[5mC]*dA*dG*dG*dA*dG*e[5mC]*e[5mC]*e[5mC]) [compound 372530]	0	2	0	10	38	78	35%									
372546 (antisense eT*eT*eG*dG*dT*d[5mC]*dT*dT*dG*dT*dG*dA*dT*eT*eG*eT) [compound 372546]	0	2	11	4	48	78	34%									
372563 (antisense eA*eG*d[5mC]*d[5mC]*dA*dG*dG*dT*dG*dA*d[5mC]*dA*eG*eA) [compound 372563]	0	0	0	1	4	46	48%									
372578 (antisense eT*eG*dT*dG*dT*d[5mC]*dT*dT*d[5mC]*dA*d[5mC]*d[5mC]*eA*eG) [compound 372578]	0	0	0	2	7	42	59%									
372580 (antisense eG*eG*dT*dT*dG*dT*dG*dT*dG*dT*d[5mC]*dT*eT*e[5mC]) [compound 372580]	0	5	5	3	16	42	48%									
372586 (antisense eG*eT*dT*d[5mC]*d[5mC]*dT*dG*dG*dT*dG*dG*dT*e[5mC]*eA) [compound 372586]	0	0	0	0	7	55	40%	19	0	22	45	77	7			
372594 (antisense eA*e[5mC]*dA*dG*dA*dA*dG*dG*d[5mC]*dA*d[5mC]*d[5mC]*e[5mC]*eA) [compound 372594]	0	0	0	0	2	15	77%									
372602 (antisense e[5mC]*e[5mC]*dA*dG*dG*d[5mC]*dA*dT*dG*dG*dA*dG*e[5mC]*eT) [compound 372602]	0	0	10	0	19	51	39%	0	0	18	47	76	0			
372618 (antisense eG*eT*dG*dG*dT*dA*d[5mC]*dA*dG*dG*dT*d[5mC]*eG*eA) [compound 372618]	0	0	0	0	30	60	29%	0	5	27	65	80	0			
372624 (antisense eT*eG*dG*dT*d[5mC]*dT*dT*dG*dT*dG*dA*dT*eT*eG) [compound 372624]	0	0	0	1	16	38	56%									
ISIS 382675 (antisense eT*dA*dG*d[5mC]*d[5mC]*dA*d[5mC]*d[5mC]*dA*dA*d[5mC]*eT*eG)														−50%	−65%	−80%
ISIS 382677: SGLT2; GGCATGAGCTTCA 1-10-2 MOE (antisense eG*dG*d[5mC]*dA*dT*dG*dA*dG*d[5mC]*dT*dT*e[5mC]*eA)														−40%	−60%	−75%
